From PMC7806715, “Discovery of small molecules targeting the tandem tudor domain of the epigenetic factor UHRF1 using fragment-based ligand discovery” (Scientific Reports, 2021)

Assays:
[1] = no reference given; cited from earlier work
[2] = target: T1, His6-TTD (UHRF1 tandem Tudor domain) vs. H3K9me3 peptide (Homo sapiens, UniProt Q96T88); assay: TR-FRET assay: His6-TTD interaction with H3K9me3 peptide; format: biochemical; conditions: protein treated with PKA and ATP 1 h at 30 °C
T1 construct: Using the isolated His6-TTD (aa 123–283) we performed a thermal shift assay; made in house; host or cells: Rosetta (DE3) E. coli, pMCSG7
T1 sequence (Q96T88 123-283): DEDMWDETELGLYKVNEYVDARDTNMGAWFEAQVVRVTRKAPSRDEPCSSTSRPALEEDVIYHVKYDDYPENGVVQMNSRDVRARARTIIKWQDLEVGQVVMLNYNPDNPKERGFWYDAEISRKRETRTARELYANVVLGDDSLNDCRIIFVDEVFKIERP
Description: Finally, the fragment library was screened using a TR-FRET assay to find inhibitors that block the interaction of His6-TTD with H3K9me3 peptide. In this assay, an anti-His6-antibody labeled with Tb cryptate binds to His6-TTD while a streptavidin-d2 acceptor binds to a biotinylated histone H3K9me3 peptide. The binding between His6-TTD and H3K9me3 peptide was measured by the ratio of 665 nm fluorescence (from the d2 acceptor) to 620 nm fluorescence (from the Tb cryptate donor) (Fig. 1D).
The fragment screen was carried out on low volume 384-well white plates (Corning 4512) and the assay was performed at room temperature. […] After 1 h of incubation, the fluorescent signals at 665 nm and 620 nm of each plate were measured by the Tecan Infinite M1000 plate reader (excitation 340 nm, 60 µs lag time, and 500 µs integration time) and the TR-FRET signal was calculated by the ratio of 665 nm/620 nm fluorescent signal. For the fragment screen, on seven of the library plates there were 32-wells of DMSO control, while there were 8-wells of DMSO control in the last plate. […] The only difference was that the final concentration of His6-TTD-PHD was 200 nM, biotin-H3K9me3 peptide was 200 nM for the His6-TTD-PHD TR-FRET assay, while the final concentration of His6-UHRF1-FL was 200 nM and biotin-H3K9me3 peptide was 100 nM for the His6-UHRF1-FL TR-FRET assay. The buffer pH was 7.5 for the His6-TTD-PHD and His6-UHRF1-FL assays.

[3] = target: T2, His6-TTD-PHD (aa 123–366) wild type vs. H3K9me3 peptide (Homo sapiens, UniProt Q96T88); assay: TR-FRET assay: His6-TTD-PHD wild type binding to H3K9me3 peptide; format: biochemical
T2 construct: made in house; host or cells: Rosetta (DE3) E. coli, pMCSG7
T2 sequence (Q96T88 123-366): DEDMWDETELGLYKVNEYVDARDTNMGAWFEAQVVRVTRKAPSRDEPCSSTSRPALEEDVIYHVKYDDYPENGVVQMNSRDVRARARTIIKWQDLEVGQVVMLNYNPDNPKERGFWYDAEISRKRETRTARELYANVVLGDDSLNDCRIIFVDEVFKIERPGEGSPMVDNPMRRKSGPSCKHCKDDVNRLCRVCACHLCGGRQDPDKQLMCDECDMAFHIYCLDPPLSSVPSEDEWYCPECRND
Description: To test this hypothesis, we generated two TTD-PHD mutants: (1) S298D, which mimics phosphorylation at Ser298 and (2) RR295/296AA, which prevents Arg295 and Arg296 of the TTD-PHD linker from contacting the Arg binding cavity of TTD. […] The fragment screen was carried out on low volume 384-well white plates (Corning 4512) and the assay was performed at room temperature. The TR-FRET reagent mix contained 200 nM of biotinylated-H3K9me3 peptide (Anaspec), 250 nM of His6-TTD, 25 nM of streptavidin-d2 (CisBio), and 1 × anti-6His-Tb cryptate Gold (Cisbio) in TR-FRET buffer (50 mM sodium phosphate, pH 7, 150 mM NaCl, 1 mM DTT, and 0.1% Triton-X-100). During the screen, 5 μl of TR-FRET reagent mix was dispensed into each well, and 100 nl of chemical fragments stock (10 mM in DMSO) was added to each well by pintool using Tecan Freedom Evo liquid handler to make the final compound concentration 196 μM. After 1 h of incubation, the fluorescent signals at 665 nm and 620 nm of each plate were measured by the Tecan Infinite M1000 plate reader (excitation 340 nm, 60 μs lag time, and 500 μs integration time) and the TR-FRET signal was calculated by the ratio of 665 nm/620 nm fluorescent signal. For the fragment screen, on seven of the library plates there were 32-wells of DMSO control, while there were 8-wells of DMSO control in the last plate. The TR-FRET assays for the interactions between His6-TTD-PHD and His6-UHRF1-FL binding to biotinylated-H3K9me3 (1-20) peptide were similar to the assay for His6-TTD. The only difference was that the final concentration of […] assay, while the final concentration of His6-UHRF1-FL was 200 nM and biotin-H3K9me3 peptide was 100 nM for the His6-UHRF1-FL TR-FRET assay. The buffer pH was 7.5 for the His6-TTD-PHD and His6-UHRF1-FL assays. The His6-TTD and His6-TTD-PHD proteins (30 μM) were treated with PKA (P2645, Sigma) at 0.5 U/μl at 30 °C for 1 h in the reaction buffer (50 mM Tris, pH 7.5, 10 mM MgCl2, 0.02% Triton-X-100, 1 mM ATP, 1 mM DTT). The untreated sample was incubated at 30 °C for 1 h in same buffer condition without the addition of PKA. […]

## Cc1ccnc(C)c1 [2,4-lutidine]
[1]
  pKa: 6.99
[2]
  effect of PKA treatment of His6-TTD on inhibition of H3K9me3 peptide binding (in words): no effect
[3]; dose-response, side by side with His6-TTD
  inhibition of His6-TTD-PHD interaction with H3K9me3 peptide (in words): only weakly inhibits
[3]; protein treated with PKA and ATP 1 h at 30 °C
  effect of PKA treatment of His6-TTD-PHD on inhibition of H3K9me3 peptide binding (in words): improves the ability
[3]; wild type TTD-PHD, 2.5 mM 2,4-lutidine
  inhibition of binding to H3K9me3 peptide: 7.9%
